According to patent publication US8709406B2, “Prevention and treatment of oxidative stress disorders by gluthathione and phase II detoxification enzymes” (Brassica Foundation for ChemoProtection Research, priority 2001, dated 2014):

Columns and labels:
L1210 cells = test: Menadione cytotoxicity (MTT, median effect analysis) and protection by sulforaphane; assay type: cell-based, mouse; details: menadione 2 h
Description: Mouse L1210 leukemia cells, a gift from Dr. Joseph G. Cory, East Carolina State University, Greenville, N.C., were grown in RPMI 1640 medium supplemented with 10% horse serum. All cultures were incubated in a humidified atmosphere of 5% CO2 at 37° C. Media and sera were obtained from Life Technologies (Rockville, Md.).
All experiments were performed in 96-well microliter plates. ARPE-19 and HaCaT cells were seeded at 10,000 cells per well and grown for 24 h before addition of sulforaphane, whereas L1210 cells (5,000 cells/well) were not incubated before sulforaphane treatment. Solutions of sulforaphane (5 mM) in dimethyl sulfoxide were diluted with the cognate culture medium to provide final inducer concentrations of 0.16-5.0 μM. The final DMSO concentrations were 0.1% by volume.
Cell viability was determined by spectroscopic measurement of the reduction of MTT (Carmichael, J., DeGraff, W. G., Gazdar, A. F., Minna, J. D. & Mitchell, J. B. (1987) Cancer Res. 47, 936-942). The culture media were discarded after the designated incubation periods, the cells were washed three times with PBS by use of a microtiter plate washer (Ultrawash Plus, Dynex Technologies, Chantilly, Va.). Each well then received 150 μl of an MTT solution (0.5 mg/ml) in serum-free medium. The plates were incubated for 2 h at 37° C., the MTT solution was discarded, 100 μl of DMSO were added to each well, and the plates were shaken at 200 rpm on an orbital shaker for 5 min. The absorbances of the wells were determined at 555 nm with a microtiter plate reader (Spectra Max Plus, Molecular Devices, Sunnyvale, Calif.). The absorbance of reduced MIT was then compared at each inducer and oxidant concentration to that of untreated control cells that received only the vehicle in which sulforaphane (DMSO) and menadione (DMSO or PBS) were dissolved. In each experiment three identical 96-well plates were used and the means of the absorbance values, the standard deviations of these means, and their coefficients of variation were calculated.
Dose-effect analyses were performed according to the Median Effect Equation, by use of a computer program (Chou, T. C. & Hayball, M. (1996) CalcuSyn for Windows 3.1 and 95: multiple dose effect analyzer and manual for IBM-PC, Biosoft, Cambridge, U.K). The equation: fa/fu=[D/Dm]^m, where fa is the fraction of cells affected by the oxidant, fu is the fraction unaffected (i.e., 1-fa), D is the dose of oxidant required to produce the effect fa, Dm is the concentration of oxidant required to produce a 50% effect, i.e., when fa=fu, and the slope m is a measure of the sigmoidicity of the dose-response curve, and is therefore a measure of cooperativity. The results are analyzed by plotting log(fa/fu) with respect to log D of the oxidant. The computer program provides the slope (m) of the curves, and the goodness of fit (r^2) to linearity.

glutathione = details: ARPE-19
Description: Cells were lysed by addition of a digitonin solution (0.8 mg/ml digitonin in 2 mM EDTA, pH 7.8), incubated at 37° C. for 20 min, gently shaken for 20 min at 25° C., and centrifuged at 1,500×g for 20 min at 4° C.
Total glutathione (oxidized and reduced) was determined by reduction of 5,5′-dithiobis-2-nitrobenzoic acid (DTNB) in a glutathione reductase-coupled assay in 96-well microliter plates (Ritchie, J. P., Jr., Skowronski, L., Abraham, P. & Leutzinger, Y. (1996) Clin. Chem. 42, 64-70). Briefly, 30 μl of lysates were mixed with 60 μl of cold 2.5% metaphosphoric acid, stored at 4° C. for 10 min, and centrifuged for 20 min at 1,500×g at 4° C. […] After 5 min incubation at 25° C., 50 μl of 0.72 mM NADPH were added to each well, and the initial reaction rates were determined at 412 nm. Calibration curves for pure GSH were included in each assay.

[1] = after sulforaphane 0.16 μM 24 h
[2] = after sulforaphane 0.31 μM 24 h
[3] = after sulforaphane 0.63 μM 24 h

`C[S+]([O-])CCCCN=C=S` (centres unmarked) [Sulforaphane] was tested. Which “Dm (median effect concentration) of menadione” value (shortened to “Dm”) (L1210 cells; [1]) did it give?
Its value is 19.6 µM.

And the “m (slope of median effect plot) for menadione” value (from here on “m (slope of median effect plot)”) (L1210 cells; [1])?
Its value is 0.864.

And the “Dm” value (L1210 cells; [2])?
Its value is 26.5 µM.

What about the “m (slope of median effect plot)” value (L1210 cells; [2]) of the same molecule?
Its value is 1.00.

And the “Dm” value (L1210 cells; [3])?
Its value is 36.2 µM.

And the “m (slope of median effect plot)” value (L1210 cells; [3])?
Its value is 1.17.

And the “concentrations of GSH in cytosols” value (glutathione; sulforaphane 0-5.0 μM 24 h)?
The value was “rose with exposure to increasing concentrations of sulforaphane”.

What about the “increase of GSH levels” value (glutathione; sulforaphane 2.5 μM 24 h) of the same molecule?
The value was “about 50%”.
